For 27 compounds, IC50 results are on record in patent publication US8598217B2, “Imidazole derivatives and their use as modulators of cyclin dependent kinases” (Astex Therapeutics Ltd., priority 2009, dated 2013).

The term IC50 denotes the concentration at which inhibition is half-maximal.

Sequence of CDK4/cyclin D1 (P11802 whole entry): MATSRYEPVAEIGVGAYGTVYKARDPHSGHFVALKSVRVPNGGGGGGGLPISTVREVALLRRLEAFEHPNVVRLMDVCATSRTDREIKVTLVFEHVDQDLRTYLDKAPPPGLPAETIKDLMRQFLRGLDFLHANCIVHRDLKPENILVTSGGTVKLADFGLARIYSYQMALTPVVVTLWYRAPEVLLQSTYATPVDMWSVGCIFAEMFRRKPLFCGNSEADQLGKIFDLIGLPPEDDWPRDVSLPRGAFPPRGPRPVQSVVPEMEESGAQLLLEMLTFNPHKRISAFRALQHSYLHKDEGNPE
Sequence of CDK4/cyclin D1 (P24385 whole entry partner): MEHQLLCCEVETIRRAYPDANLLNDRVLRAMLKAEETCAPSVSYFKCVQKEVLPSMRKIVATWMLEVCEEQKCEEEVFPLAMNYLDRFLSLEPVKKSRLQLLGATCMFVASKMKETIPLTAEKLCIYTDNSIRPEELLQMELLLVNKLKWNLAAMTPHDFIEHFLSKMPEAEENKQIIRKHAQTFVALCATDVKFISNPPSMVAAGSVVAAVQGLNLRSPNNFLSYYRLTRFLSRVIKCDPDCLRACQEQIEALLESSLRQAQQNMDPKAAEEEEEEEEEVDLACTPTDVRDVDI

For the first assay, the target named is CDK4/cyclin D1 (Homo sapiens (Human), UniProt P11802). Kind of assay: CDK4/cyclin D1 enzymatic activity assay (Protocol A, Lance TR-FRET). The assay is classed as biochemical. The conditions noted are these: CDK4/cyclin D1, 175 nM pRb152, 3 μM ATP, 60 min, room temperature; read-out: IC50 against CDK4 kinase. On the procedure:
A 384-well microtiter Lance TR-FRET (time-resolved-fluorescence energy transfer) endpoint assay was used for CDK4/cyclin D1 kinase activity measurements. The same assay was used for IC50 determination of small molecule inhibitors. In general, the kinase reactions were carried out in 30 μL volumes in the reaction solution containing the following: 2 μL compound (in 20% DMSO), 18 uL CDK4/cyclin D1 in Assay Buffer (50 mM HEPES, pH 7.5, 5 mM MgCl2, 2 mM MnCl2, 1 mM DTT, 0.05% BSA, 0.02% Tween-20), 10 μL of the mixture of pRb152 and ATP. The final reaction mixture contains compound (inhibitor) with the concentration varying from […], 2% DMSO, 0.3 nM CDK4/cyclin D1, 175 nM pRb152, and 3 μM ATP (Amersham Pharmacia, Cat. No. 27-2056-01). All reactions were run at room temperature in 384-well white flat-bottom OptiPlates (Perkin Elmer, Cat. No. 6007290) for 60 min then were quenched by the addition of 10 μL of 120 mM EDTA. The signals were captured by the addition of 40 μL of the Detection Solution containing the following: Detection Buffer (50 mM HEPES, pH 7.5, 30 mM EDTA, 0.1% Triton x-100, 0.05% BSA), 70 ng/mL anti-phospho-pRb(S780) (Cell Signaling Technology, Cat. No. 9307S), 1 nM Lance Eu-W1024-Rabbit anti-IgG (Perkin Elmer, Cat. No. AD0082), and 20 nM SureLight™ Allophycocyanin-Streptavidin (Perkin Elmer, Cat. No. CR130-100). The resulted solutions were incubated at room temperature for 2 hours before read on the Evision Multilabel Reader (Perkin Elmer, Envision 2102-0010). Note: IC50<0.005 nM or IC50>10 μM indicates the true IC50 is out of detection range.
CDK4/cyclin D1 recombinant protein used in the enzymatic activity assay was prepared by coexpressing pDEST10-CDK4 (N-terminal His6) and pFastBacDual-GST-hCyclinD1 viruses in Sf21 cells. The overexpressed protein was purified by Ni-NTA affinity pull down to >80% pure by Sizing HPLC.
Turning to `CN(C)Cc1ccc2nc(C(=O)c3ccnc(-c4cncc5ccccc45)c3)[nH]c2c1` [Example 84, (6-Dimethylaminomethyl-1H-benzoimidazol-2-yl)-(2-isoquinolin-4-yl-pyridin-4-yl)-methanone], the half-maximal inhibitory concentration (IC50) came out at 0.057 µM.
Same read-out and setting: the same measure for `CN1CCN(Cc2ccc3[nH]c(C(=O)c4ccnc(-c5cncc6ccccc56)c4)nc3c2)CC1` [Example 86, (2-Isoquinolin-4-yl-pyridin-4-yl)-[5-(4-methyl-piperazin-1-ylmethyl)-1H-benzoimidazol-2-yl]-methanone]: 0.027 µM.
On the same count and under the same terms, the same measure for `Cc1nn(C)c(C)c1-c1cc(C(=O)c2nc3ccc(N4CCNCC4)nc3[nH]2)ccc1C#N` [Example 189, 4-(5-piperazin-1-yl-3H-imidazo[4,5-b]pyridine-2-carbonyl)-2-(1,3,5-trimethyl-1H-pyrazol-4-yl)-benzonitrile]: 0.095 µM; for `Cc1n[nH]c(C)c1-c1cc(C(=O)c2nc3ccc(N4CCCNCC4)nc3[nH]2)ccn1` [Example 170, (5-[1,4]Diazepan-1-yl-3H-imidazo[4,5-b]-pyridin-2-yl)-[2-(3,5-dimethyl-1H-pyrazol-4-yl)-pyridin-4-yl]-methanone]: 0.548 µM; for `COc1ccc(F)c(F)c1-c1cc(C(=O)c2nc3cc(N4CCC(N(C)C)CC4)ccc3[nH]2)ccn1` [Example 103, [2-(2,3-Difluoro-6-methoxy-phenyl)-pyridin-4-yl]-[5-(4-dimethylamino-piperidin-1-yl)-1H-benzoimidazol-2-yl]-methanone]: 0.06 µM.
Same read-out and setting: the figure for `COc1ccc(F)c(F)c1-c1cc(C(=O)c2nc3ccc(N4CCC(N(C)C)CC4)nc3[nH]2)ccn1` [Example 148, [5-(4-dimethylamino-piperidin-1-yl)-3H-imidazo[4,5-b]pyridin-2-yl]-[2-(2,3-difloro-6-methoxy-phenyl)-pyridin-4-yl]-methanone] is 0.067 µM.
For `Cc1n[nH]c(C)c1-c1cc(C(=O)c2nc3ccc(N4CCC(N(C)C)CC4)nc3[nH]2)ccn1` [Example 167, [5-(4-Dimethylamino-piperidin-1-yl)-3H-imidazo[4,5-b]pyridine-2-yl]-[2-(3,5-dimethyl-1H-pyrazol-4-yl)-pyridin-4-yl]-methanone], the IC50 stood at 0.195 µM.
The same measure, in the same setting: the figure for `Cc1n[nH]c(C)c1-c1cc(C(=O)c2nc3ccc(N4CCNCC4)nc3[nH]2)ccn1` [Example 169, [2-(3,5-Dimethyl-1H-pyrazol-4-yl)-pyridin-4-yl]-(5-piperazin-1-yl-3H-imidazo[4,5-b]pyridine-2-yl)-methanone] is 0.26 µM; for `CN(C)C1CCN(c2ccc3nc(C(=O)c4ccc(C#N)c(-c5cncc6[nH]ccc56)c4)[nH]c3n2)CC1` [Example 140, 4-[5-(4-Dimethylamino-piperidin-1-yl)-3H-imidazo[4,5-b]pyridine-2-carbonyl]-2-(1H-pyrrolo[2,3-c]pyridin-4-yl)-benzonitrile] it is 0.004 µM.
The same measure, in the same setting: the figure for `CN(C)C1CCN(c2ccc3[nH]c(C(=O)c4ccnc(-c5cncc6ccccc56)c4)nc3c2)CC1` [Example 89, [5-(4-Dimethylamino-piperidin-1-yl)-1H-benzoimidazol-2-yl]-(2-isoquinolin-4-yl-pyridin-4-yl)-methanone] is 0.004 µM; for `CN(C)C1CCN(c2ccc3nc(C(=O)c4ccc(C#N)c(-c5cncc6ccccc56)c4)[nH]c3n2)CC1` [Example 165, 4-[5-(4-Dimethylamino-piperidin-1-yl)-3H-imidazo[4,5-b]pyridine-2-carbonyl]-2-isoquinolin-4-yl-benzonitrile] it is 0.003 µM; for `Cc1ncc2ccccc2c1-c1cc(C(=O)c2nc3cc(C(=O)N4CCNCC4)ccc3[nH]2)ccc1C#N` [Example 174, 2-(3-Methyl-isoquinolin-4-yl)-4-[5-(piperazine-1-carbonyl)-1H-benzoimidazole-2-carbonyl]-benzonitrile] it is 0.005 µM.
Still for that read-out and setting: the same measure for `O=C(c1ccnc(-c2cncc3ccccc23)c1)c1nc2ccc(N3CCCNCC3)nc2[nH]1` [Example 163, (5-[1,4]Diazepan-1-yl-3H-imidazo[4,5-b]pyridine-2-yl)-(2-isoquinolin-4-yl-pyridin-4-yl)-methanone]: 0.014 µM; for `CN(C)C1CCN(c2ccc3nc(C(=O)c4ccnc(-c5cncc6ccccc56)c4)[nH]c3n2)CC1` [Example 135, [5-(4-Dimethylamino-piperidin-1-yl)-3H-imidazo[4,5-b]pyridin-2-yl]-(2-isoquinolin-4-yl-pyridin-4-yl)-methanone]: 0.012 µM; for `O=C(c1ccnc(-c2cncc3ccccc23)c1)c1nc2ccc(N3CCNCC3)nc2[nH]1` [Example 164]: 0.024 µM.
As to `O=C(c1ccnc(-c2cncc3ccccc23)c1)c1nc2cc(OCC(O)CO)ccc2[nH]1` (stereo not drawn) [Example 98, [5-(2,3-Dihydroxy-propoxy)-1H-benzoimidazol-2-yl]-(2-isoquinolin-4-yl-pyridin-4-yl)-methanone], the IC50 worked out at 0.033 µM.

The assay is the same for the next values; noted with them: CDK4/cyclin D1, 175 nM pRb152, 3 μM ATP; bound stated; read-out: IC50 values against CDK4.
`CNS(=O)(=O)c1ccccc1-c1cc(C(=O)c2nc3ccc(N4CCC(N(C)C)CC4)cc3[nH]2)ccn1` [Example 120, 2-{4-[6-(4-Dimethylamino-piperidin-1-yl)-1H-benzoimidazole-2-carbonyl]-pyridin-2-yl}-N-methyl-benzenesulfonamide]: the half-maximal inhibitory concentration (IC50) is < 10 µM.
Still for that read-out and setting: the figure for `COc1cccc(F)c1-c1cc(C(=O)c2nc3ccc(N4CCC(N(C)C)CC4)cc3[nH]2)ccn1` [Example 50, [6-(4-Dimethylamino-piperidin-1-yl)-1H-benzoimidazol-2-yl]-[2-(2-fluoro-6-methoxy-phenyl)-pyridin-4-yl]-methanone] is < 10 µM; for `Cc1n[nH]c(C)c1-c1cc(C(=O)c2nc3ccc(N4CCC(N(C)C)CC4)cc3[nH]2)ccn1` [Example 129, [6-(4-Dimethylamino-piperidin-1-yl)-1H-benzoimidazol-2-yl]-[2-(3,5-dimethyl-1H-pyrazol-4-yl)-pyridin-4-yl]-methanone] it is < 10 µM.
Regarding `COc1ccc(F)c(F)c1-c1cc(C(=O)c2nc3cc(N4CCC(N(C)C)CC4)ccc3[nH]2)ccn1` [Example 103, [2-(2,3-Difluoro-6-methoxy-phenyl)-pyridin-4-yl]-[5-(4-dimethylamino-piperidin-1-yl)-1H-benzoimidazol-2-yl]-methanone], the half-inhibitory concentration (IC50) is < 10 µM.
On to `CN(C)C1CCN(c2ncc3nc(C(=O)c4ccnc(-c5cncc6ccccc56)c4)[nH]c3n2)CC1` [Example 133, [2-(4-Dimethylamino-piperidin-1-yl)-9H-purin-8-yl]-(2-isoquinolin-4-yl-pyridin-4-yl)-methanone], for which the half-inhibitory concentration (IC50) is < 10 µM.
Still for that read-out and setting: the figure for `Cc1nn(C)c(C)c1-c1cc(C(=O)c2nc3ccc(N4CC5(CNC5)C4)nc3[nH]2)ccc1C#N` [Example 207, 4-[5-(2,6-Diaza-spiro[3.3]hept-2-yl)-3H-imidazo[4,5-b]pyridine-2-carbonyl]-2-(1,3,5-trimethyl-1H-pyrazol-4-yl)-benzonitrile] is < 10 µM; for `CN(C)Cc1cccc2[nH]c(C(=O)c3ccnc(-c4cncc5ccccc45)c3)nc12` [Example 79A, (4-Dimethylaminomethyl-1H-benzoimidazol-2-yl)-(2-isoquinolin-4-yl-pyridin-4-yl)-methanone] it is < 10 µM; for `Cc1nn(C)c(C)c1-c1cc(C(=O)c2nc3ccc(OC4CCNC4)nc3[nH]2)ccc1C#N` (stereo not drawn) [Example 160, 4-[5-(Pyrrolidin-3-yloxy)-3H-imidazo[4,5-b]pyridine-2-carbonyl]-2-(1,3,5-trimethyl-1H-pyrazol-4-yl)-benzonitrile] it is < 10 µM.
Same read-out and setting: the same measure for `COc1ccc(F)c(F)c1-c1cncc(C(=O)c2nc3cc(CN(C)C)ccc3[nH]2)c1` [Example 159, [5-(2,3-Difluoro-6-methoxy-phenyl)-pyridin-3-yl]-(5-dimethylaminomethyl-1H-benzoimidazol-2-yl)-methanone]: < 10 µM.
Same read-out and setting: the same measure for `CN(C)C1CCN(c2ccc3nc(C(=O)c4ccnc(-c5cncc6ccccc56)c4)[nH]c3n2)CC1` [Example 135, [5-(4-Dimethylamino-piperidin-1-yl)-3H-imidazo[4,5-b]pyridin-2-yl]-(2-isoquinolin-4-yl-pyridin-4-yl)-methanone]: < 10 µM; for `COc1cccc(F)c1-c1cc(C(=O)c2nc3ccc(N4CCN(C)CC4)cc3[nH]2)ccn1` [Example 49, [2-(2-Fluoro-6-methoxy-phenyl)-pyridin-4-yl]-[6-(4-methyl-piperazin-1-yl)-1H-benzoimidazol-2-yl]-methanone]: < 10 µM; for `COc1ccc(F)c(F)c1-c1cc(C(=O)c2ncc[nH]2)ccn1` [Example 66, [2-(2,3-Difluoro-6-methoxy-phenyl)-pyridin-4-yl]-(1H-imidazol-2-yl)-methanone]: < 10 µM.
For `COc1cccc(F)c1-c1cc(C(=O)c2nc3cc(CN4CCOCC4)ccc3[nH]2)ccn1` [Example 73, [2-(2-Fluoro-6-methoxy-phenyl)-pyridin-4-yl]-(5-morpholin-4-ylmethyl-1H-benzoimidazol-2-yl)-methanone], the 50% inhibitory concentration (IC50) is < 10 µM.
The same measure, in the same setting: the figure for `O=C(c1ccnc(-c2cncc3ccccc23)c1)c1nc2cc(OCC(O)CO)ccc2[nH]1` (stereo not drawn) [Example 98, [5-(2,3-Dihydroxy-propoxy)-1H-benzoimidazol-2-yl]-(2-isoquinolin-4-yl-pyridin-4-yl)-methanone] is < 10 µM.
